# Measurements from patent US20180085371A1, “COMBINATION OF PANOBINOSTAT AND RUXOLITINIB IN THE TREATMENT OF CANCER SUCH AS A MYELOPROLIFERATIVE NEOPLASM” (Novartis AG, priority 2011, published 2018).
# Where “and” joins values, the source holds several entries; their conditions need not be identical. Equal entries are not always repeated.
# How the values were obtained:
# [1] = PK analysis 2 hours post-therapy, Example A (blood and tissue levels); assay type: in vivo, mouse; conditions: mean; for BM level 2 hr post-therapy: BM levels to be taken with caution
# Experimental: 2 hours after last dose for Compound A;
# 2 hours after last dose for Compound B; • Spleen weight is recorded at sacrifice. • Samples collected and snap frozen in liquid nitrogen and then kept at −80° C. until analysis: • spleen, BM, blood and liver for PK analysis • spleen for PD marker analysis (p-STATS (Compound A) and protein acetylation (Compound B)), • sternum for PD marker analysis (p-STATS (Compound A).
# Concentrations of Compound A and Compound B in plasma and tissues were determined simultaneously by an UPLC/MS-MS assay. Tissues were homogenized in an equal volume of HPLC-Water (Water for chromatography, Merck) using the Fast Prep®-24 system (M.P. Biomedicals, Irvine, Calif., USA). Following addition of 25 μl of internal standard mixture (1 μg/ml) to analytical aliquots (25 μl) of blood or tissues homogenate, the proteins were precipitated by the addition of 200 μl acetonitrile. The supernatant were transferred in a fresh vial. After evaporation to dryness the samples were re-dissolved in 60 μl acetonitrile/water (1/1 v/v). An aliquot (5 μl) of this solution was separated on a ACQUITY UPLC BEH C18 column (Waters™ 1.7 μm particle size, 2.1×50 mm) with a mobile phase consisting of a mixture of 0.1% formic acid in water (solvent A) and 0.1% formic acid in acetonitrile (solvent B). Gradient programming was used with a flow rate of 600 μl/min. After equilibration with 95% solvent A, 5 μl of sample was injected. Following a latency period of 0.25 min., the sample was eluted with a linear gradient of 5-100% solvent B over a period of 0.65 minutes followed by a 0.35 min. hold. The column was prepared for the next sample by re-equilibrating over 0.25 min. to the starting conditions. The column eluent was directly introduced into the ion source of the triple quadrupole mass spectrometer TQDTM (Waters Corporation, Milford, Mass., USA) controlled by Masslynx™ 4.1 software. Electrospray positive ionization (ESI+) multiple reaction monitoring was used for the MS/MS detection of the analyte. Precursor to product ion transition of 307.0→m/z 186.0 for Compound A was used. Simultaneously precursor to product ion transition of 350.1→m/z 142.9 for Compound B was recorded. The limit of quantification (LOQ) for both compounds was set to 9 ng/ml and 9 ng/g for plasma and tissues, respectively (CV and overall bias less than 30%). Regression analysis and further calculations were performed using QuanLynx™ 4.1 (Micromass) and Excel™ 2007 (Microsoft). Concentrations of unknown samples were back-calculated based on the peak area ratios of analyte/IS from a calibration curve constructed using calibration samples spiked in blank blood or tissue obtained from animals treated with vehicle.
# [2] = test system: JAK2V617F bone marrow transduced cells; experiment: Histology of bone marrow and spleen (cellularity, splenic architecture, reticulin fibrosis) in JAK2V617F bone marrow transplant model; assay type: in vivo, mouse; conditions: 21 days; for Bone marrow hypercellularity / Splenic architecture: Compound B 8 mg/kg, Compound A 60 mg/kg or both; for Bone marrow hypercellularity: rank Combo>Compound A=Compound B; for Splenic architecture: rank Combo>Compound A>Compound B
# Description: and spleens were collected, fixed in formalin, trimmed, embedded in paraffin and sectioned at (nominally) 4 μm using a microtome. […] Briefly, the spleen was removed in total, weighed and placed on a dissection tray. The spleen was cut transverse in two halves and two equal pieces were taken from the middle parts using a scalpel. […] Baker, Medite, Switzerland). Fixative volume was at least tenfold in excess compared to tissue volume. […] After a last wash in PBS, the tissues were cut up and set with the surface of interest downwards in a universal histocassette followed by processing in a TPC 15Duo (Tissue Processing Center) for paraffinization. From each tissue paraffin block, several 3 μm thick sections were cut on a sliding or rotary microtome (Mikrom International AG, Switzerland), spread in a 45° C. water-bath, mounted on microscope slides (Polysine, VWR International, Leuven, Belgium), and air-dried in an oven at 37° C. overnight. Dry tissue section slides were taken out of the oven and placed in the slide rack of the linear stainer COT20 (Medite, Switzerland) for fully automated H&E (Haematoxylin &Eosin) staining or processed for immunohistochemistry (IHC) staining. For IHC, tissue section samples were stained with rabbit anti-phospho STAT5 antibody (clone C11C5), and rabbit anti-acetyl Histone H3 antibody (Millipore, MA, USA) coverslipped and air-dried. […] Splenic architecture was evaluated as destroyed (1+) or preserved (0). Presence of myeloid, erythroid and adipocytes cells was evaluated as 0, 1+, 2+, 3+ based on cellularity. […] Whole slide automated quantitative assessment of p-STAT5-positive and -negative cell nuclei were performed using Definiens eCognition software (eCognition version XD 1.5, Definiens AG, Germany). The results were expressed as percent of positive p-STAT5 nuclei out of total nuclei.
# [3] = Stability of dosing solution at room temperature; assay type: physicochemical
# Experimental: Compound B was administered as the lactate salt by intraveneous or intraperitoneal injection. The lactic salt of Compound B was formulated in isotonic D5W (5% Dextrose; B. Braun, Lot 395147) at a concentration of 1.5 mg/ml, 1 mg/ml and 0.5 mg/ml, respectively. The solution was stable for up to 10 days at room temperature. Treatment was given 3 times a week at a volume of 10 ml/kg. The final equivalent free-base doses were respectively 11.90, 7.94 and 3.97 mg/kg. In the figures, these doses are reported as whole values.
# The mono-phosphate salt of Compound A was formulated in 0.5% HPMC (Pharmacoat 603, Dow Chemical Plaqueline, USA) at a concentration of 7.9 mg/ml. Solution was stable at room temperature for 4 days. Treatment was given bid at a volume of 10 ml/kg. The final equivalent free-base dose was 60 mg/kg.
# [4] = Body weight change in JAK2V617F bone marrow transplant model; conditions: sacrifice day after 21 days; Compound B 8 mg/kg ip 3 times a week, Compound A 60 mg/kg po q12h, or Combo of both
# Experimental: (§1) Animals were monitored daily and sacrificed in case of major signs of distress (excessive body weight loss over more than 2 consecutive days without improvement, combined with lethargy and piloerection).
# Results shown in the figures and tables represent means±SEM. Percentage change in body weights and absolute values or transformed values (log10, or other as specified) for spleen weights, reticulocyte, WBC counts, Hct and histological data were analyzed by unpaired t-test or Rank-Sum test to compare a single treatment group to vehicle group or one way ANOVA followed by Dunnett's test to compare treatment groups to vehicle group. Multiple comparisons were done using the Tukey's test. All comparisons were done on sacrifice day. The significance level was set to p<0.05. Calculations were performed using GraphPad Prism for Windows (GraphPad Software Inc.).
# (§2) Mice were randomized on day 27 post BMT based on Hct values (67% in average in this experiment, N=9/group) and treated with Compound B (8 mg/kg, 3×/week MWF, i.p.) and Compound A (60 mg/kg, q12h, p.o.) as single agents or combined.
# [5] = test system: JAK2V617F bone marrow transduced cells; experiment: JAK2V617F bone marrow transplant model of polycythemia vera-like disease (spleen weight, blood counts, GFP-positive cells)
# Experimental: Briefly, Balb/c donor mice (6-8 weeks, Charles River, males or females) were treated 5 days prior BM transplant with 5-fluorouracil (150 mg/kg, i.p., Sigma-Aldrich, cat #F6627). Bone marrow cells from donor mice were harvested by flushing femurs and tibias. After red cell lysis (StemCellTechnologies, Grenoble, France, cat #07800), nucleated cells were cultured for 24 hours in transplant medium (RPMI+10% FCS+25 ng/ml IL3 (R&D Systems, Abington, UK, cat #403-ML), 25 ng/ml IL6 (R&D Systems cat #406-ML), and 50 ng/ml Stem Cell Factor (SC F, Bioconcept, Allschwill, Switzerland, cat #D-63120). The next day, cells were plated at 2×10^6cells/ml/well in 6 well plates in the presence of 1 mL of supernatant containing virions from 293T transfected with 10 μg of p-MSCV-JAK2V617F-IRES-GFP vector (modification of original vector p-MSCV vector purchased from Clontech) and 10 μg of pCL-ECO vector (Imgenex, cat #10045P). After two spin-infections (2500 rpm for 90 min at 32° C., Multifuge 1S-R, Heraeus) unselected infected BM cells were resuspended in Hank's balanced salt solution (HBSS) before cell injection (1-3×10^6 depending on infection rate) into the tail vein of lethally irradiated Balb/c female recipient mice (total 9 Gy or 7 Gy) given as two 4.5 or 3.5 Gy doses 4 hours apart) using a BIOBEAM 8000, gamma irradiator (BEBIG GmbH, Germany).
# as §1
# Blood was drawn from the tail vein or at sacrifice from the vena cava with a 20 G needle under isoflurane anesthesia (terminal procedure) and analyzed using an automated complete and differential blood cell counter (capillary mode using dilution 1:5 on a Sysmex blood analyzer, XT2000iV, Sysmex Digitana AG, Norderstedt, Germany). Spleens were weighed to evaluate splenomegaly. Blood, spleens, sterna, and livers were collected for pharmacokinetic, pharmacodynamic.
# Ten microliters of whole blood were used to detect circulating GFP-positive cells. Briefly, blood was distributed into a 96-well round bottom plate (Costar, cat #3795) and red blood cells (RBC) were lysed with 200 μl of red blood cell lysis buffer (Sigma, cat #R-7757). After an incubation period of 7 min. in the dark on a plate agitator, cells were centrifuged (5 min., 300 g) and the supernatant discarded by inversion of the plate. After 3 washing steps in FACS buffer (phosphate buffered saline (D-PBS), 3% FBS and 0.02% sodium azide), nucleated cells were resuspended in 200 μl of cold FACS buffer and processed for GFP detection using a LSRII flow cytometer (BD Biosciences, Heidelberg, Germany).
# as §2
# [6] = treatment Compound A 60 mg/kg + Compound B 4 mg/kg
# [7] = treatment Compound A 60 mg/kg + Compound B 8 mg/kg
# [8] = treatment Compound A 60 mg/kg + Compound B 12 mg/kg
# [9] = sacrifice day after 21 days, Compound B 8 mg/kg ip, Compound A 60 mg/kg po q12h, or Combo
"Blood level 2 hr post-therapy [1, 6] [µM]","Liver level 2 hr post-therapy [1, 6]","Spleen level 2 hr post-therapy [1, 6]","BM level 2 hr post-therapy [1, 6]","Blood level 2 hr post-therapy [1, 7] [µM]","Liver level 2 hr post-therapy [1, 7] [nmol/g]","Spleen level 2 hr post-therapy [1, 7] [nmol/g]","BM level 2 hr post-therapy [1, 7] [nmol/g]","Blood level 2 hr post-therapy [1, 8] [µM]","Liver level 2 hr post-therapy [1, 8] [nmol/g]","Spleen level 2 hr post-therapy [1, 8] [nmol/g]","BM level 2 hr post-therapy [1, 8] [nmol/g]",Structure (SMILES),Bone marrow hypercellularity [2],Splenic architecture [2],BW change (%) (mean ± SEM) [4],"Hct (%) (mean ± SEM) [5, 9]","Retic counts (×10^12/L) (mean ± SEM) [5, 9]",other results
0.02,0.30 + nmol/g,2.80 + nmol/g,6.15 + nmol/g,0.03,0.32,3.02,8.43,0.02,0.71,4.51,9.81,"Cc1[nH]c2ccccc2c1CCNCc1ccc(/C=C/C(=O)NO)cc1 [Compound B, N-hydroxy-3-[4-[[[2-(2-methyl-1H-indol-3-yl)-ethyl]-amino]methyl]phenyl]-2E-2-propenamide]",decrease,improved,−5% and −4.57%,52.2,0.24 ×10^12/L,"Blood level 2 hr post-therapy ([1]; treatment Compound B 4 mg/kg): BLQ; Liver level 2 hr post-therapy ([1]; treatment Compound B 4 mg/kg): 0.18 nmol/g; Spleen level 2 hr post-therapy ([1]; treatment Compound B 4 mg/kg): 1.40 nmol/g; BM level 2 hr post-therapy ([1]; treatment Compound B 4 mg/kg): 3.34 nmol/g; Blood level 2 hr post-therapy ([1]; treatment Compound B 8 mg/kg): BLQ; Liver level 2 hr post-therapy ([1]; treatment Compound B 8 mg/kg): 0.25 nmol/g; Spleen level 2 hr post-therapy ([1]; treatment Compound B 8 mg/kg): 2.07 nmol/g; BM level 2 hr post-therapy ([1]; treatment Compound B 8 mg/kg): 3.17 nmol/g; Blood level 2 hr post-therapy ([1]; treatment Compound B 12 mg/kg): BLQ; Liver level 2 hr post-therapy ([1]; treatment Compound B 12 mg/kg): 0.63 nmol/g; Spleen level 2 hr post-therapy ([1]; treatment Compound B 12 mg/kg): 3.64 nmol/g; BM level 2 hr post-therapy ([1]; treatment Compound B 12 mg/kg): 7.32 nmol/g; Stability of solution at room temperature ([3]; lactic salt in isotonic D5W (5% Dextrose), 0.5-1.5 mg/ml): up to 10 days"
2.78,3.49 + nmol/g,1.15 + nmol/g,2.59 + nmol/g,2.23,2.91,1.02,1.92,2.72,3.87,1.61,2.29,"N#CC[C@H](C1CCCC1)n1cc(-c2ncnc3[nH]ccc23)cn1 [Compound A, (R)-3-(4-(7H-pyrrolo[2,3-d]pyrimidin-4-yl)-1H-pyrazol-1-yl)-3-cyclopentylpropanenitrile]",decrease,improved,0.45%,59.4,0.42 ×10^12/L,"Blood level 2 hr post-therapy ([1]; treatment Compound A 60 mg/kg): 1.96 µM; Liver level 2 hr post-therapy ([1]; treatment Compound A 60 mg/kg): 4.54 nmol/g; Spleen level 2 hr post-therapy ([1]; treatment Compound A 60 mg/kg): 1.28 nmol/g; BM level 2 hr post-therapy ([1]; treatment Compound A 60 mg/kg): 1.40 + nmol/g; Fibrosis score (reticulin staining on sternum sections) ([2]; Compound A 60 mg/kg or combination with Compound B 8 mg/kg, high variability): tendency to reduce; Stability of solution at room temperature ([3]; mono-phosphate salt in 0.5% HPMC, 7.9 mg/ml): 4 days; PLT (×10^9/L) (mean ± SEM) [5, 9]: 695.9 ×10^9/L; WBC (×10^9/L) (mean ± SEM) ([5]; sacrifice day after 21 days, Compound B 8 mg/kg ip, Compound A 60 mg/kg po q12h, or Combo, all values): 22.2 ×10^9/L; GFP positive circulating cells (%) ([5]; sacrifice day after 21 days, allele burden surrogate, Compound B 8 mg/kg ip, Compound A 60 mg/kg po q12h, or Combo): 34.0%; WBC (×10^9/L), mean without outlier ([5]; sacrifice day, Compound A 60 mg/kg po q12h, value between brackets, 1 outlier excluded): (7.46 ×10^9/L"
